Experimental data from US20160235807A1, “AGONISTS OF GUANYLATE CYCLASE USEFUL FOR DOWNREGULATION OF PRO-INFLAMMATORY CYTOKINES” (SYNERGY PHARMACEUTICALS, INC., priority 2013, published 2016).
Entries after “also recorded” stand apart in the source; their conditions may differ. Bridge positions count the residues as written; N and C are the ends. Square brackets hold non-standard residues; d marks the D form. Peptide text beside a SMILES is read from it.

How the values were obtained:
T84 cells [1] = assay: MicroRNA microarray analysis of SP-333 treated T84 cells; type: cell-based, human; conditions: T84, 1 μM, 5 h
Protocol: T84 cells were grown to confluence in 100 mm tissue culture dishes. Cells were treated with pre-determined concentration of SP-333 (1 μM) in the presence of phosphodiesterase inhibitor, zaprinast (500 μM; Sigma Aldrich) for 5 hours. Following treatment, cells were trypsinized and the sample was divided into 3 aliquots. One aliquot was used to determine total cGMP. Another was used for extracting total RNA. The last aliquot was used to extract and purify miRNAs using Norgen's Kit (Norgen BioteK). Briefly, cells were lysed using lysis buffer, passed through a column to remove large RNA, followed by capturing miRNA using microRNA enrichment column. Purified samples were stored at −20° C. MicroRNAs were profiled on a LC Sciences microarray chip and TaqMan Open Array Human miRNA panel.

T84 cells [2] = assay: Quantitative RT-PCR for transcripts in T84 cells; type: cell-based, human
Protocol: T-84 cells (˜10^7 cells) were treated with 1 μM SP-333 for 5 h. Subsequently, cDNA was prepared from total RNA using High Capacity RNA-to-cDNA Kit (Applied Biosystems, Carlsbad, Calif.) according to manufacturer's instructions. Quantitative Real-Time PCR amplification and analysis were carried out using Lightcycler 480 (Roche, Basel Switzerland), p65 and IKK-13 specific Taqman gene expression assays and Lightcycler 480 Probe master. All amplification assays were performed in duplicate employing 20 ng cDNA (based on input RNA). The total reaction volume was adjusted to 20 μL with appropriate amounts of TaqMan gene expression assays, Lightcycler 480 probe master and distilled water, then subjected to 45 PCR cycles using default cycling parameters. GAPDH transcript was used as endogenous control. The data generated were analyzed and expressed as target gene expression relative to endogenous control using comparative Cp method and 2^−ΔΔCp formula (comparative Cp values and advanced quantitative relative quantification method). TaqMan reagents were obtained from Applied Biosystems (Carlsbad, Calif.).
T-84 cells were treated with 1 μM SP-333 for 5 hours. Subsequently, cDNA was prepared from total RNA and subjected to quantitative Real-Time PCR using TaqMan reagents from Applied Biosystems.

NF-κB = assay: Inhibition of NF-κB signaling in LPS-stimulated T84 cells, Western blot; type: cell-based, human
Protocol: Approximately 1.5×10^6 T84 cells were seeded into 100 mm dishes and cultured essentially as described (Shailubhai et al. 2000). At 85-90% confluence, cells were washed and treated with 10 μg/ml lipopolysaccharides (LPS) from Escherichia coli (Sigma-Aldrich, St. Louis, Mo.) for 4 h. Subsequent to LPS treatment, cells were washed and replenished with fresh media containing 8-Bromo-cyclic GMP (8-Br-cGMP) at 0, 0.1, 1, 10, 100 and 1000 μM (Enzo Life Science, Farmingdale, N.Y.), or SP-333 at 0, 0.01, 0.1, 1 and 10 μM together with 500 μM of phosphodiesterase inhibitor Zaprinast (Sigma-Aldrich, St. Louis, Mo.) for 16 h before harvest. For analyzing phosphorylation status of IKK-α/β, T84 cells were stimulated with LPS (10 μg/ml) for 4 h followed by treatment with 0.1 and 1.0 μM of SP-333 in the presence of 500 μM Zaprinast, for 2 h. The control cells (without LPS treatment) were washed and refilled with fresh media and harvested simultaneously with treated cells. Nuclear and cytosolic extracts were prepared by the previously described method (Aiamkitsumrit et al. 2007). Protein concentration was measured with a Bio-Rad protein assay kit (Bio-Rad, Hercules, Calif.). The extracts were stored at −80° C. until use.
T84 cells at 85-90% confluence were washed and treated with 10 μg/ml Escherichia coli LPS (Sigma-Aldrich, St. Louis, Mo.) for 4 h.
Western Blot analysis: This was performed essentially as described^21 employing either 50 μg of cytoplasmic or 25 μg proteins of the nuclear fractions. The blots were probed overnight with primary antibodies of interest (anti-p65 antibody, 1:200 dilution; anti-IκB antibody 1:500 dilution; anti-phosphorylated p65 antibody, 1:250 dilution; anti-phosphorylated IκB antibody 1:250 dilution; all were from Santa Cruz Biotechnology (Santa Cruz, Calif.). Anti-IKK-β and phosphorylated IKK-α/β (Ser 176/180) were purchased from Cell Signaling Technology, Boston, Mass. and used at 1:500 dilution; anti-mouse or anti-rabbit antibodies conjugated to […] were used for chemiluminescence detection as recommended by manufacturer (GE Healthcare, Piscataway, N.J.).

[3] = Non-clinical safety and toxicology studies; conditions: rodents and monkeys, oral
[4] = Table 8: downregulated under NF-κB
[5] = Table 8: upregulated under NF-κB
[6] = SP-333 1 μM, 5 h, compared to unstimulated T84 cells, FIG. 3D
[7] = T84 cells, compared to untreated cells, FIG. 16

In the case of `CC(C)C[C@@H]1NC(=O)[C@H](CCC(=O)O)NC(=O)[C@@H](NC(=O)[C@H](CCC(=O)O)NC(=O)[C@H](CC(=O)O)NC(=O)[C@H](N)CC(N)=O)CSSC[C@@H]2NC(=O)[C@H](C)NC(=O)[C@H](C(C)C)NC(=O)[C@H](CC(N)=O)NC(=O)[C@H](C(C)C)NC(=O)[C@H](CSSC[C@@H](C(=O)N[C@H](CC(C)C)C(=O)O)NC(=O)CNC(=O)[C@H]([C@@H](C)O)NC2=O)NC1=O` [SP-333, dAsn^1-Asp^2-Glu^3-Cys^4-Glu^5-Leu^6-Cys^7-Val^8-Asn^9-Val^10-Ala^11-Cys^12-Thr^13-Gly^14-Cys^15-dLeu^16] (H-[dN]DECELCVNVACTGC[dL]-OH; disulfide 4-12, 7-15; N-terminus and C-terminus assumed), the miR-133b level (T84 cells [1]; Table 8: downregulated in CRC) was “increase”, the miR-139-5p level (T84 cells [1]; Table 8: downregulated in CRC) was “increase” and the miR-133a level (T84 cells [1]; Table 8: downregulated in CRC, p<0.01) was “increase”. The miR-218 level (T84 cells [1]; [4]) was “increase”, the miR-223 level (T84 cells [1]; [4]) was “increase” and the mir-29b level (T84 cells [1]; [4]) was “increase”. For the same molecule, the miR-16 level (T84 cells [1]; Table 8: downregulated under NF-κB, p<0.01) was “upregulated; also recorded: increase”, the miR-15a level (T84 cells [1]; Table 8: downregulated under NF-κB, p<0.05) was “upregulated; also recorded: increase” and the miR-92 level (T84 cells [1]; Table 8: upregulated in CRC) was “decrease”. For the same molecule, the miR-26b level (T84 cells [1]; Table 8: upregulated in IBD) was “decrease”, the miR-28-5p level (T84 cells [1]; Table 8: upregulated in IBD) was “decrease” and the miR-98 level (T84 cells [1]; Table 8: upregulated in IBD) was “decrease”. For the same molecule, the miR-99a level (T84 cells [1]; Table 8: upregulated in IBD) was “decrease”, the miR-203 level (T84 cells [1]; Table 8: upregulated in IBD) was “decrease” and the miR-362-3p level (T84 cells [1]; Table 8: upregulated in IBD) was “decrease”. For the same molecule, the miR-532-3p level (T84 cells [1]; Table 8: upregulated in IBD) was “decrease”, the miR-10a level (T84 cells [1]; [5]) was “decrease” and the miR-27b level (T84 cells [1]; [5]) was “decrease”. The miR-30b level (T84 cells [1]; [5]) was “decrease”, the miR-301 level (T84 cells [1]; [5]) was “decrease” and the miR-199-3p level (T84 cells [1]; Table 8: upregulated under NF-κB and cMyc) was “decrease”. The miR-224 level (T84 cells [1]; Table 8: upregulated under cMyc) was “decrease”, the miR-125b level (T84 cells [1]; p<0.001) was “upregulated” and the let-7i level (T84 cells [1]; p<0.005) was “upregulated”. The miR-494 level (T84 cells [1]; p<0.005) was “reduced”, the “miR-41-3p level (negative regulator of c-Src)” value (T84 cells [1]; p<0.01) was “significantly increased” and the miR-200c level (T84 cells [1]; p<0.01) was “reduced”. The “family of miR-29 level” value (T84 cells [1]; p<0.05) was “upregulated”, the miR-30c level (T84 cells [1]; p<0.05) was “increased” and the miR-92a level (T84 cells [1]; p<0.05) was “reduced”. The “reduction of transcript levels of IKK-13” value (T84 cells [2]; [6]) was “approximately 50%”, the “reduction of transcript levels of p65” value (T84 cells [2]; [6]) was “approximately 50%” and the “decrease in IKKβ expression” value (T84 cells [2]; [7]) was 59%. For the same molecule, the “decrease in p65 expression” value (T84 cells [2]; [7]) was 55%, the “levels of phospho-p65” value (NF-κB; LPS 10 μg/ml 4 h, then SP-333 (1.0 and 10 μM) 16 h, zaprinast 500 μM) was “reduced levels of phospho-p65 in a dose-dependent manner” and the “levels of IκBα” value (NF-κB; LPS-activated T84 cells) was “increase”. The “levels of phospho-IκBα” value (NF-κB; LPS-activated T84 cells) was “reduced”, the “level of total IKKβ” value (NF-κB; LPS-activated T84 cells, FIG. 3C) was “remained unchanged” and the “LPS-mediated increase in phosphorylation of IKKβ” value (NF-κB; SP-333 1 μM, 2 h after LPS 4 h) was “completely reversed”. For the same molecule, the “LPS induced activation of NF-κB” value (NF-κB; T84 cells) was “inhibited” and the “non-clinical safety and toxicology” value [3] was “orally-safe drug candidate”.
